Laboratory results reported in patent US20050277615A1, “Pharmaceutical compositions having anti-inflammatory activity” (CAN-FITE BIOPHARMA LTD., priority 2004, published 2005).
Each block holds one molecule with its values, some of them ahead of it.

Experiments:
[1] = target: T1, A2A receptor in rat striatum (Rattus norvegicus, UniProt P30543); assay: Radioligand binding, [3H]ZM 241385 displacement; conditions: [3H]ZM 241385, rat striatal membranes
T1 construct: the A2A receptor in rat striatum; from tissue; host or cells: rat striatum

EAE in female C57B1 mice = assay: MOG-induced EAE in C57B1 mice, clinical score; format: in vivo, mouse; conditions: MOG-immunized C57BL/6J female mice, oral treatment from day 7 (FIG. 3)
Protocol: . The encephalitogenic emulsion containing MOG (300 μg/mouse) in Complete Freund's adjuvant enriched with 5 mg/mL Mycobacterium Tuberculosis was injected subcutaneously in the right flank of the mouse. A boost of the encephalitogenic emulsion was injected subcutaneously in the left flank one week later. Also, on the day of the first injection of MOG, Pertussis toxin (300 ng/mouse) was injected intraperitoneally at a volume dose of 0.1 mL/mouse. The injection of the Pertussis Toxin was repeated after 48 hours. The mice were observed daily from the 10th day post-EAE induction (first injection of MOG) and the EAE clinical signs were scored as follows:. 0—No neurological signs; 1—Distal limp tail: 1.5—Complete limp tail; 2—Difficulties to return on feet when laid on the back; 3—Ataxia; 4—Early paralysis; 5—Full paralysis; 6—Moribund/Death. […] The clinical score was monitored daily starting with the appearance of neurological signs.

TNF-α = assay: Western blot of spinal cord protein extract of EAE rats; format: in vivo, rat; conditions: treated vs untreated (FIG. 2)
[2] = Preliminary qualitative solubility study; format: physicochemical; conditions: 1 mg/ml, ambient temperature
[3] = target: T2, adenosine A1 receptor in rat brain cortex (Rattus norvegicus, UniProt P25099); assay: Radioligand binding, [3H]DPCPX displacement; conditions: rat cortical membranes, 10 μM
T2 construct: the adenosine A1 receptor in rat brain cortex; from tissue; host or cells: rat brain cortex
T2 sequence (P25099 1-326): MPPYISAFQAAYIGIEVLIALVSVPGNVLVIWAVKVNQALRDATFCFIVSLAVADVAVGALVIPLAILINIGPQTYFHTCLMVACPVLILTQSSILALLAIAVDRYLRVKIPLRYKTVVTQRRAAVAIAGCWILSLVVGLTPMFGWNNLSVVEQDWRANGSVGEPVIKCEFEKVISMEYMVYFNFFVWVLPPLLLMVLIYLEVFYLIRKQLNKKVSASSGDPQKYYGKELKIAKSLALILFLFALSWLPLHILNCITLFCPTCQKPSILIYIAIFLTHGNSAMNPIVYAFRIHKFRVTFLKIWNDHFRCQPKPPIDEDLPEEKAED

IL-10 = assay: Western blot of spinal cord protein extract of EAE rats; format: in vivo, rat; conditions: treated vs untreated (FIG. 2)
[4] = test system: colitis in male Balb/C mice; assay: Dextran sodium sulfate colitis model; format: in vivo, mouse; conditions: 5% DSS Balb/c mice
From the text: Colitis induced by dextran sodium sulfate is a murine model of intestinal inflammation that resembles human inflammatory bowel diseases such as Crohn's disease. Male Balb/C mice, 8 weeks of age were fed for 7 days, with 5% dextran sulfate sodium in distilled water throughout the experiments. […] Weight loss and survival were monitored.

[5] = target: T3, human adenosine A2A receptors expressed in CHO cells (Homo sapiens, UniProt P29274); assay: cAMP assay A2A (stimulation of cAMP production); format: cell-based
T3 construct: expressed in transfected cells; host or cells: CHO
Protocol: After incubation for 40 minutes at 37° C., 100 μL agonist was added. […] Wells were stored at −20° C. until assay.
Wells were stored at −20° C. until assay. […] As a buffer was used 150 mM K2HPO4/10 mM EDTA/0.2% Bovine Serum Albumine (BSA) at pH 7.5.
(§1) Data Analysis. Apparent Ki and EC50 values were computed from the displacement curves by non-linear regression of the competition curves with the software package Prism (Graph Pad, San Diego, Calif.).

phosphorylated GSK-3β = assay: Western blot of spinal cord protein extract of EAE rats; format: in vivo, rat; conditions: treated vs untreated (FIG. 2)
[6] = test system: Experimental autoimmune encephalomyelitis (EAE) in female Lewis rats; assay: MBP-induced EAE in Lewis rats, clinical score; format: in vivo, rat; conditions: 10 μg/kg PO BID from day 7, difference in maximal clinical score P<0.01 (FIG. 1)
Protocol: EAE is an inflammatory demyelinating disease of the nervous system, which serves as a model for multiple sclerosis (MS). EAE was induced by intradermal injection at the base of the tail of female Lewis rats (8 weeks old) with an emulsion consisting of the following for each rat: 100 μg myelin basic protein (MBP) from guinea pig (M2295; Sigma), 0.1 ml Complete Freund's adjuvant (CFA; F5506, Sigma), and 0.2 mg of Mycobacterium tuberculosis H37 Ra (M. tuberculosis, 3114, Difco). The emulsion was injected in two halves into the medial footpad of each hind limb of the rats.
The rats developed clinical EAE symptoms which were graded into the following categories: 0, no neurological symptoms; 1, loss of tail tonus and paralysis of the whole tail; 2, hind limbs weakness; 3, hind limbs paralysis; 4, quadriplegia; 5, moribund. The immunized rats developed acute monophasic EAE within 10 days after immunization.

[7] = target: T4, human A3 receptor as expressed in HEK 293 cells (Homo sapiens, UniProt P0DMS8); assay: Radioligand binding, [125I]AB-MECA displacement; conditions: human A3 receptor in HEK 293 cells, ±SEM, n = 3
T4 construct: expressed in transfected cells; host or cells: HEK 293
T4 sequence (P0DMS8 1-318): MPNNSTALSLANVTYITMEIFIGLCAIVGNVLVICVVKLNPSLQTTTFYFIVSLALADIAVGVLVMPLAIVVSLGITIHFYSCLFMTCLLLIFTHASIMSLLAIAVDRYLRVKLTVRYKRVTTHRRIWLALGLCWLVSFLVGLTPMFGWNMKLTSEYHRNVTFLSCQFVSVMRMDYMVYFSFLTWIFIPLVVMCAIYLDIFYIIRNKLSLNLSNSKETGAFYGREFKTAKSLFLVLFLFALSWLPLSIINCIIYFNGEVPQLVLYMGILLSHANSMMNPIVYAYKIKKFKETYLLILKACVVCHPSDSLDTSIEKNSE
Protocol: General. […] AB-MECA, an A3 receptor agonist, was used. Displacement experiments were performed in the absence of GTP.
Radioligand Binding Studies. […] Incubations were carried out for 1 hr at 37° C. and were terminated by rapid filtration over Whatman GF/B filters, using a Brandell cell harvester (Brandell, Gaithersburg, Md.). Tubes were washed three times with 3 ml of buffer. Radioactivity was determined in a Beckman 5500B γ-counter. Nonspecific binding was determined in the presence of 10^−5 M R-PIA.
as §1

[8] = test system: multiple sclerosis (MS) patients; conditions: patients having MS, U.S. Pat. No. 5,506,214; cited from earlier work
A1 receptor = target: T5, A1 receptor (Rattus norvegicus, UniProt P25099); conditions: Siddiqi et al (1995); cited from earlier work
T5 sequence (P25099 1-326): T2 sequence (P25099 1-326)

A2a receptor = A2a receptor (Rattus norvegicus, UniProt P30543); conditions: Siddiqi et al (1995); cited from earlier work
Sequence of A2a receptor (P30543 whole entry): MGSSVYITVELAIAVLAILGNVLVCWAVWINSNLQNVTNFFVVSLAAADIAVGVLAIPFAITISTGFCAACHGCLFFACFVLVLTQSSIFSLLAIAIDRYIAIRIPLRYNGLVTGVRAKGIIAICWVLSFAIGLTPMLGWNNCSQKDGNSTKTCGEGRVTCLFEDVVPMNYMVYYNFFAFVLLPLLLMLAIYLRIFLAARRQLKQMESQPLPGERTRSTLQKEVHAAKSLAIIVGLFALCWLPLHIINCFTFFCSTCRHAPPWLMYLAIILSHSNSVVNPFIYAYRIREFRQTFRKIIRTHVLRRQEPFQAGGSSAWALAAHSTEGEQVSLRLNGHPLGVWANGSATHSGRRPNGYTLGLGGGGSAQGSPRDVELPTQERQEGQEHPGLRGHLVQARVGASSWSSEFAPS

T3 sequence (P29274 whole entry): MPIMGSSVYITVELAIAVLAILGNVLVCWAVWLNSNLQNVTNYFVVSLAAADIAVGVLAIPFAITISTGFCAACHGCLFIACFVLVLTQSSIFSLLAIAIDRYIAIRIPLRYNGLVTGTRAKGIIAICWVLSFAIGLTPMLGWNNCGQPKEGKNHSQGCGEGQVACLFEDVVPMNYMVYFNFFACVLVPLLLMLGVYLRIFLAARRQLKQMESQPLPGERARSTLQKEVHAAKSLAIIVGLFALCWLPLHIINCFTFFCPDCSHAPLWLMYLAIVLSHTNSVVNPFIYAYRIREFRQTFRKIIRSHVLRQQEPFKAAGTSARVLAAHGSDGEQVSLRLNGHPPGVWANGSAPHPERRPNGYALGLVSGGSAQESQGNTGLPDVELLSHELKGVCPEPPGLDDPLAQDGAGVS
T1 sequence (P30543 whole entry): as the sequence (P30543 whole entry) above

Ki ([1]; ±SEM, n = 3): 60 ± 20 nM
Solubility in DMSO ([2]; DMSO): Soluble
Solubility in water ([2]; water): Insoluble
% displacement at 10^−5 M, A1 [3]: 36%
Emax ([5]; CHO): 45 ± 6%
EC50 ([5]; cAMP production, A2A CHO cells): 0.7 ± 0.1 µM
Compound: CCCCC#Cc1nc(N)c2ncn(C3OC(CSC)C(O)C3O)c2n1 (stereo not drawn) [CF402, 5′-deoxy-2-(1-hexynyl)-5′-methylthioadenosine]
Inhibition of development of EAE clinical signs vs control group (EAE in female C57B1 mice): 40%
Level of TNF-α in spinal cord protein extract (TNF-α): down-regulation
Level of IL-10 in spinal cord protein extract (IL-10): up-regulation
Clinical signs of colitis ([4]; 10 μg/kg PO BID from day 4): protected
Weight loss vs control ([4]; 10 μg/kg PO BID from day 4 (FIG. 4)): reduced weight loss
Phosphorylated GSK-3β protein expression level in spinal cord (phosphorylated GSK-3β): decrease
Clinical EAE score vs control group [6]: remarkably low clinical score

Ki [7]: 120 ± 15 nM
Compound: OC[C@H]1O[C@@H](n2cnc3c(NC4CCCC4)ncnc32)[C@H](O)[C@@H]1O [CPA]

Compound: Nc1nc(Cl)nc2c1ncn2[C@H]1C[C@H](O)[C@@H](CO)O1 [CdA, 2-chloro-2′-deoxyadenosine]
Effect on MS disease condition [8]: markedly ameliorate
Type of action at A1 receptors (A1 receptor): putative partial agonist
Ki (A2a receptor): 20000 nM

% displacement at 10^−5 M, A2A ([1]; 10 μM): 24%
Compound: CNC(=O)[C@H]1O[C@@H](n2cnc3c(NCc4cccc(I)c4)nc(Cl)nc32)[C@H](O)[C@@H]1O [Cl-IB-MECA, reference compound]
